Source: US8877234B2, “Preservatives” (Clariant Finance (BVI) Limited, priority 2005, dated 2014)

Assays:
[1] = tested on: Candida albicans; experiment: Minimum inhibitory concentration (MIC), agar dilution method, DIN 58940; assay type: cell-based
Protocol: (§1) The MIC values were determined in accordance with DIN 58940 by the agar dilution method.

[2] = tested on: Staphyloccus aureus; experiment: as above; assay type: cell-based
Protocol: as §1

[3] = tested on: Aspergillus niger; experiment: as above; assay type: cell-based
Protocol: as §1

[4] = tested on: Pseudomonas aeruginosa; experiment: as above; assay type: cell-based
Protocol: as §1

[5] = cited from earlier work
[6] = O/W emulsions and W/O emulsions; 0.5% by weight; cited from earlier work

Row | Structure (SMILES) | MIC in % [1] [%] | MIC in % [2] [%] | MIC in % [3] [%] | MIC in % [4] [%] | solubility in oil [5] | solubility in water [5] | antimicrobial activity [6]
1 | OCCOc1ccccc1 [PE, 2-phenoxyethanol] | 0.5 | 0.25 | 0.25 | 0.5 | – | – | –
2 | Cc1cc(CC(C)CC(C)(C)C)n(O)c(=O)c1.NCCO (centres unmarked) [Octopirox ®, 2-aminoethanol salt of 1-hydroxy-4-methyl-6-(2,4,4-trimethylpentyl)-2(1H)-pyridone] | 0.004 | 0.002 | 0.004 | 0.016 | no more than moderate solubility | low solubility | inadequate
